According to patent US20240336606A1 (Suzhou Zelgen Biopharmaceuticals Co., Ltd., priority 2020, published 2024):
Where a name gives a salt, the structure may show the parent alone.

What follows are compounds tested against T1, binding of KRAS^G12C to SOS1 (Homo sapiens, UniProt Q07889) (assay: Inhibition of the binding of KRAS^G12C to SOS1). Settings: Tag1-SOS1 / Tag2-KRAS^G12C, 2 h incubation at room temperature; read-out: IC50 (nM), inhibitory activity on the binding of KRAS^G12C to SOS1.
T1 construct: Tag1 (unspecified)
T1 sequence (Q07889 1-1333): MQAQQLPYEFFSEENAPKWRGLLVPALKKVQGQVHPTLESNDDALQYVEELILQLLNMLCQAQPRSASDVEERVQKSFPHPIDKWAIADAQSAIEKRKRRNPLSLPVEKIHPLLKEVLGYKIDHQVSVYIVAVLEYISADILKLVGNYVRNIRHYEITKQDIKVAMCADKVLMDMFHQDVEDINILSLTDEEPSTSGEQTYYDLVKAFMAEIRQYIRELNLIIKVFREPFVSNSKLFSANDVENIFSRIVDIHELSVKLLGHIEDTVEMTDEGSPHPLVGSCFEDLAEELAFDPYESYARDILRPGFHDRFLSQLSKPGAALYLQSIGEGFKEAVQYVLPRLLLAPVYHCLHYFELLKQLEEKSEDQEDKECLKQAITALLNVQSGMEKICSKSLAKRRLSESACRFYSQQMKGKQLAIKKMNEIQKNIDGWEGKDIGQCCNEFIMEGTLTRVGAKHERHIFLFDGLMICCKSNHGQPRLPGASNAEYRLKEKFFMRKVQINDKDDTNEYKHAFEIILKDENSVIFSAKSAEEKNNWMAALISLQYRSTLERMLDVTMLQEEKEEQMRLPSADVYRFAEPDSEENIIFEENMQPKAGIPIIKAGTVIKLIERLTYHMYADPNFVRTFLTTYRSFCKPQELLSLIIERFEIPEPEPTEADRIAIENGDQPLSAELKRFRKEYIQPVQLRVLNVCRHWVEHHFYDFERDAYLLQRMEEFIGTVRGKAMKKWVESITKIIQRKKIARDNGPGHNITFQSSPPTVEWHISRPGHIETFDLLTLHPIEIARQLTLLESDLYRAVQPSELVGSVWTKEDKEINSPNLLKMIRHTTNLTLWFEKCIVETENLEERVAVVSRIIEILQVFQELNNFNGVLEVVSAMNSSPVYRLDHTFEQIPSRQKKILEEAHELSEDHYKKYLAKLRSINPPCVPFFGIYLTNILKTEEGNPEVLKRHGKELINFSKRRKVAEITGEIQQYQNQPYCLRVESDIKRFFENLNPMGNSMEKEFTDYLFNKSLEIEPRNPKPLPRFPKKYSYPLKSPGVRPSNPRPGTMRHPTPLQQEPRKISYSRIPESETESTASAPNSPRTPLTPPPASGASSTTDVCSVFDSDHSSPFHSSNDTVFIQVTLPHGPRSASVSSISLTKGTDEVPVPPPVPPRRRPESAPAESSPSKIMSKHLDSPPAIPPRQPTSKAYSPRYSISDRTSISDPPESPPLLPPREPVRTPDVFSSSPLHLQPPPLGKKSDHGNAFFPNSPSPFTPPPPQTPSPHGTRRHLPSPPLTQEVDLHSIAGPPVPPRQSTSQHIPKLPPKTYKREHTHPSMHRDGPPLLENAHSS
Protocol: • (1) Gradient dilution of the test compounds: 10 mM mother solution (dissolved in 100% DMSO) was added to a 384-well test plate, the final content of DMSO being 0.25%.
(2) 5 μL of Tag1-SOS1 solution was added to the test plate, and 5 μL of dilution buffer was added to the control group.
(3) 5 μL of Tag2-KRAS^G12C solution was added to the test plate.
(4) 10 μL of Anti-Tag1-Tb3+ and Anti-Tag2-XL665 detection solution were added to the test plate. The plate was centrifuged at 1000 rpm for 1 min and incubated at room temperature for 2 h.
(6) The IC50 values for the compounds were finally calculated using GraphPad Prism software, and a curve was fit and plotted.
The inhibitory activity of the compounds of the examples of the present invention on the binding of KRAS^G12C enzyme to SOS1 is shown in Table 1.

| IC50 [nM] | SMILES |
| --- | --- |
| 4.2 | COCCOCCOc1cc2c(N[C@H](C)c3cc(N)cc(C(F)(F)F)c3)nc(C)nc2cc1OC [Example 50, (R)—N-(1-(3-Amino-5-(trifluoromethyl)phenyl)ethyl)-7-methoxy-6-(2-(2-methoxyethoxy)ethoxy)-2-methylquinazolin-4-amine] |
| 24 | COCCOc1cc2c(N[C@H](C)c3cc(C(F)(F)F)cc(N)n3)nc(C)nc2cc1OC [Example 51, (R)—N-(1-(6-Amino-4-(trifluoromethyl)pyridin-2-yl)ethyl)-7-methoxy-6-(2-methoxyethoxy)-2-methylquinazolin-4-amine] |
| 31 | COCCOc1cc2c(N[C@H](C)c3cc(N)cc(C(F)(F)F)n3)nc(C)nc2cc1OC [Example 52, (R)—N-(1-(4-Amino-6-(trifluoromethyl)pyridin-2-yl)ethyl)-7-methoxy-6-(2-methoxyethoxy)-2-methylquinazolin-4-amine] |
| 3.7 | COc1cc2nc(C)nc(N[C@H](C)c3cc(N)cc(C(F)(F)F)c3)c2cc1OCCCOC1CC1 [Example 53, (R)—N-(1-(3-Amino-5-(trifluoromethyl)phenyl)ethyl)-6-(3-cyclopropoxypropoxy)-7-methox y-2-methylquinazolin-4-amine] |
| 15 | CNCC1(COc2cc3c(N[C@H](C)c4cccc(C(F)(F)F)c4F)nc(C)nc3cc2OC)CC1 [Example 54, (R)—N-(1-(2-Fluoro-3-(trifluoromethyl)phenyl)ethyl)-7-methoxy-2-methyl-6-((1-((methylamino)methyl)cyclopropyl)methoxy)quinazolin-4-amine] |
| 16 | COc1cc2nc(C)nc(N[C@H](C)c3cccc(C(F)(F)F)c3F)c2cc1OCC1(CO)CC1 [Example 55, (R)-(1-(((4-((1-(2-Fluoro-3-(trifluoromethyl)phenyl)ethyl)amino)-7-methoxy-2-methylquinazolin-6-yl)oxy)methyl)cyclopropyl)methanol] |
| 9.6 | COCC1(COc2cc3c(N[C@H](C)c4cc(N)cc(C(F)(F)F)c4)nc(C)nc3cc2OC)CC1 [Example 56, (R)—N-(1-(3-Amino-5-(trifluoromethyl)phenyl)ethyl)-7-methoxy-6-((1-(methoxymethyl)cyclopropyl)methoxy)-2-methylquinazolin-4-amine] |
| 5.2 | [2H]C([2H])([2H])OCCOc1cc2c(N[C@H](C)c3cc(N)cc(C(F)(F)F)c3)nc(C)nc2cc1OC [Example 57, (R)—N-(1-(3-Amino-5-(trifluoromethyl)phenyl)ethyl)-7-methoxy-6-(2-(methoxy-d3)ethoxy)-2-methylquinazolin-4-amine] |
| 5.1 | COc1cc2nc(C)nc(N[C@H](C)c3cc(N)cc(C(F)(F)F)c3)c2cc1OCCOCC1CC1 [Example 58, (R)—N-(1-(3-Amino-5-(trifluoromethyl)phenyl)ethyl)-6-(2-(cyclopropylmethoxy)ethoxy)-7-methoxy-2-methylquinazolin-4-amine] |
| 4.7 | COCC(COC)Oc1cc2c(N[C@H](C)c3cc(N)cc(C(F)(F)F)c3)nc(C)nc2cc1OC [Example 59, (R)—N-(1-(3-Amino-5-(trifluoromethyl)phenyl)ethyl)-6-((1,3-dimethoxypropan-2-yl)oxy)-7-methoxy-2-methylquinazolin-4-amine] |
| 18 | COc1cc2nc(C)nc(N[C@H](C)c3cc(C(F)(F)F)cc(N)n3)c2cc1OCCOC1COC1 [Example 60, (R)—N-(1-(6-Amino-4-(trifluoromethyl)pyridin-2-yl)ethyl)-7-methoxy-2-methyl-6-(2-(oxetan-3-yloxy)ethoxy)quinazolin-4-amine] |
| 3.7 | COc1cc2nc(C)nc(N[C@H](C)c3cc(N)cc(C(F)(F)F)c3)c2cc1OCCOC1(C)COC1 [Example 61, (R)—N-(1-(3-Amino-5-(trifluoromethyl)phenyl)ethyl)-7-methoxy-2-methyl-6-(2-((3-methyloxetan-3-yl)oxy)ethoxy)quinazolin-4-amine] |
| 5.3 | COc1cc2nc(C)nc(N[C@H](C)c3cc(N)cc(C(F)(F)F)c3)c2cc1OCCOc1cccnc1 [Example 62, (R)—N-(1-(3-Amino-5-(trifluoromethyl)phenyl)ethyl)-7-methoxy-2-methyl-6-(2-(pyridin-3-yloxy)ethoxy)quinazolin-4-amine] |
| 12 | COCC1(C(C)Oc2cc3c(N[C@H](C)c4cc(N)cc(C(F)(F)F)c4)nc(C)nc3cc2OC)CC1 (stereo partly drawn) [Example 63, N—((R)-1-(3-Amino-5-(trifluoromethyl)phenyl)ethyl)-7-methoxy-6-(1-(1-(methoxymethyl)cyclopropyl)ethoxy)-2-methylquinazolin-4-amine] |
| 16 | COc1cc2nc(C)nc(N[C@H](C)c3cc(N)cc(C(F)(F)F)c3)c2cc1OCC1(C(C)OC)CC1 (stereo partly drawn) [Example 65, N—((R)-1-(3-Amino-5-(trifluoromethyl)phenyl)ethyl)-7-methoxy-6-((1-(1-methoxyethyl)cyclopropyl)methoxy)-2-methylquinazolin-4-amine] |
| 7 | COc1cc2nc(C)nc(N[C@H](C)c3cc(N)cc(C(F)(F)F)c3)c2cc1OCCO[C@H]1CCOC1 [Example 66, N—((R)-1-(3-Amino-5-(trifluoromethyl)phenyl)ethyl)-7-methoxy-2-methyl-6-(2-(((S)-tetrahydrofuran-3-yl)oxy)ethoxy)quinazolin-4-amine] |
| 4.2 | COc1cc2nc(C)nc(N[C@H](C)c3cc(N)cc(C(F)(F)F)c3)c2cc1OCCO[C@@H]1CCOC1 [Example 67, N—((R)-1-(3-Amino-5-(trifluoromethyl)phenyl)ethyl)-7-methoxy-2-methyl-6-(2-(((R)-tetrahydrofuran-3-yl)oxy)ethoxy)quinazolin-4-amine] |
| 6.2 | COc1cc2nc(C)nc(N[C@H](C)c3cc(N)cc(C(F)(F)F)c3)c2cc1OC[C@@H](C)OC1COC1 [Example 68, N—((R)-1-(3-Amino-5-(trifluoromethyl)phenyl)ethyl)-7-methoxy-2-methyl-6-((R)-2-(oxetan-3-yloxy)propoxy)quinazolin-4-amine] |
| 6.2 | COc1cc2nc(C)nc(N[C@H](C)c3cc(N)cc(C(F)(F)F)c3)c2cc1OC[C@H](C)OC1COC1 [Example 69, N—((R)-1-(3-Amino-5-(trifluoromethyl)phenyl)ethyl)-7-methoxy-2-methyl-6-((S)-2-(oxetan-3-yloxy)propoxy)quinazolin-4-amine] |
| 24 | COc1cc2nc(C)nc(N[C@H](C)c3cc(N)cc(C(F)(F)F)n3)c2cc1OCCOC1COC1 [Example 70, (R)—N-(1-(4-Amino-6-(trifluoromethyl)pyridin-2-yl)ethyl)-7-methoxy-2-methyl-6-(2-(oxetan-3-yloxy)ethoxy)quinazolin-4-amine] |
| 314 | COCCOc1cc2c(N[C@@H](C)c3cccc(C(F)(F)C(C)(C)O)c3F)nc(C)nc2cc1OC [Example 71, (S)-1,1-Difluoro-1-(2-fluoro-3-(1-((7-methoxy-6-(2-methoxyethoxy)-2-methylquinazolin-4-yl)amino)ethyl)phenyl)-2-methylpropan-2-ol formate] |

| SMILES | IC50 [nM] |
| --- | --- |
| COc1cc2nc(C)nc(N[C@H](C)c3cc(N)cc(C(F)(F)F)c3)c2cc1OCCOC1(C)CCC1 [Example 64, (R)—N-(1-(3-Amino-5-(trifluoromethyl)phenyl)ethyl)-7-methoxy-2-methyl-6-(2-(1-methylcyclobutoxy)ethoxy)quinazolin-4-amine] | 8.7 |
